“And” between values parts separate entries of the source, which are not always exact repeats. Equal values may be shown once.
Experiments:
[1] = tested on: Rattus norvegicus; details: repeat dose other; oral
[2] = tested on: Rattus norvegicus; details: oral
[3] = tested on: Rattus norvegicus; details: oral; remark: listed apart in the source
[4] = tested on: Mus musculus
[5] = tested on: Mus musculus; details: oral, gavage, M/F
[6] = tested on: Rattus norvegicus
[7] = tested on: Mus musculus; details: reproduction developmental, oral, generation: P0
[8] = tested on: Rattus norvegicus; details: developmental, oral, gavage, generation: F1
[9] = tested on: Rattus norvegicus; details: oral; remark: listed apart in the source
[10] = tested on: Rattus norvegicus; details: oral; remark: listed apart in the source
[11] = tested on: Rattus norvegicus; details: Hershberger, oral, gavage
[12] = tested on: Mus musculus; details: oral, gavage, B6C3F1
[13] = tested on: Rattus norvegicus; details: oral, gavage, Fischer 344
[14] = tested on: Canidae; details: chronic; duration: 1 years; oral; diet; M/F; Dog Other; gastric mucosal irritation
[15] = subchronic, M, liver/body weight ratio and hepatic microsomal enzyme induction
[16] = subchronic, M/F, hypoactivity and ataxia
[17] = subchronic, oral, M/F, hepatotoxicity
[18] = chronic, duration: 2 years, diet, M/F, Crl:CD(SD), reduced weight gain
[19] = developmental, duration: 2 years, diet, M/F, reduced body weight gain, reduced pup weight and parental food consumption
[20] = developmental, M/F, reduced pup weight and parental food consumption
[21] = duration: 10 days, Sprague-Dawley, active + Negative + Antiandrogenic + anti-androgenic + significant decrease in serum testosterone at 800 (49% decrease at 400 NS) / …
[22] = subchronic, M/F, reduced mean terminal body weight (males)
[23] = subchronic, gavage, M, Induction of hepatic enzymes + liver histopathology
[24] = subchronic, M/F, reduced body weight
[25] = subchronic, M/F, reduced rbc and plasma cholinesterase activity
[26] = subchronic, duration: 90 days, M/F, reduced body weight and neurotoxicity

Clc1cc2c(oc3cc(Cl)c(Cl)c(Cl)c32)c(Cl)c1Cl [1,2,3,6,7,8-Hexachlorodibenzofuran]
LOAEL [1]: 0.0016 mg/kg-day
NOAEL [1]: 0.00016 mg/kg-day

Brc1ccc(Br)cc1 [1,4-Dibromobenzene]
LOAEL [2, 15]: 20 mg/kg-day
NOAEL [2, 15]: 10 mg/kg-day
NOAEL ([3]; subchronic, duration: 45 days, gavage, Liver: Altered enzyme activities + Liver: Increased relative weight): 10 mg/kg-day

Brc1c(Br)c(Br)c(Oc2c(Br)c(Br)c(Br)c(Br)c2Br)c(Br)c1Br [2,2',3,3',4,4',5,5',6,6'-Decabromodiphenyl ether]
LOAEL ([4]; developmental, oral, gavage, M, neurobehavioral effects): 20.1 mg/kg-day
NOAEL ([4]; developmental, oral, gavage, neurobehavioral effects): 2.22 mg/kg-day
NOAEL ([5]; developmental, duration: 1 days, NMRI, developmental): 1.34 mg/kg-day
LOAEL ([6]; subchronic, duration: 8 weeks, oral, gavage, M, Sprague-Dawley, endocrine): 0.05 mg/kg-day
NOEL ([3]; chronic, duration: 2 years, diet, Liver: Increased weight): 1 mg/kg-day
LOEL ([7]; M/F, C57BL/6, P0: Operant test (fixed interval schedule, index of curvature, last block) + P0: Operant test (fixed interval schedule, index of curvature, …): 6 mg/kg-day
LOEL ([7]; M/F, C57BL/6, P0: Operant test (fixed interval schedule, overall response rate, first block) + P0: Operant test (fixed interval schedule, overall response…): 20 mg/kg-day
LOEL ([7]; M, Apoe3, P0: Morris water maze (swim distance in target quadrant)): 10 mg/kg-day
LOEL ([7]; M, Swiss Albino, P0: Morris water maze (latency, last trial) + P0: Morris water maze (latency, significant trial) + P0: Morris water maze (time spent in …): 20 mg/kg-day
LOEL ([8]; M/F, Crl:CD(SD), F1: Water T maze (learning error)): 1000 mg/kg-day
LOEL ([8]; M, Sprague-Dawley, F1: Morris water maze (latency, last trial) + F1: Morris water maze (latency, significant trial)): 30 mg/kg-day

O=C1C=CC(=O)O1 [2,5-Furandione]
NOAEL ([9]; subchronic, duration: 90 days, diet, M/F, Sprague-Dawley, Urinalysis: Pro increase + Absolute Organ Weight: Kidney increase + Relative Organ Weight: Liver increase, Kidney increase + Necropsy: …): < 100 mg/kg-day
NOAEL ([2]; chronic, M/F, no effects): 10 mg/kg-day
LOAEL ([2]; reproduction developmental, M/F, renal lesions): 20 mg/kg-day
NOAEL ([3]; chronic, duration: 2 years, diet, Kidney: Lesions): 10 mg/kg-day

CC(C)CO [2-Methyl-1-propanol]
NOAEL ([9]; subchronic, duration: 90 days, gavage, M/F, CD, Deaths + Clinical Observation: Hypoactivity Ataxia Salivation Labored respiration Rales Prostration Hypothermia Emaciation + Body Weight …): 316 mg/kg-day
NOAEL ([9]; subchronic, drinking water, Wistar): 2430 mg/kg-day
LOAEL [2, 16]: 1000 mg/kg-day
NOEL [2, 16]: 316 mg/kg-day
NOEL ([3]; subchronic, duration: 13 weeks, gavage, Nervous system: Ataxia + Nervous system: Hypoactivity): 316 mg/kg-day

OCC(O)CCl (centres undefined) [3-Chloro-1,2-propanediol]
LOEL ([10]; chronic, drinking water, Fischer 344, Kidney proximule tubule hyperplasia): 1.1 mg/kg-day

S=C1NCCN1 [4,5-Dihydro-2-mercaptoimidazole]
NOEL ([9]; subchronic, duration: 13 weeks, diet, M/F, Fischer 344, Body Weight Changes: decrease + Food Consumption: decrease + Histopathology: Thyroid-Diffuse follicular cell hyperplasia Thyroid-Focal …): < 5.76 mg/kg-day
LOAEL ([2]; chronic, duration: 24 months, diet, M/F, increased incidence of thyroid hyperplasia): 0.25 mg/kg-day
LOAEL ([3]; chronic, duration: 24 months, diet, Thyroid: Hyperplasia): 0.25 mg/kg-day

c1cc2c3c(cccc3c1)CC2 [Acenaphthene]
LOAEL [4, 17]: 350 mg/kg-day
NOAEL [4, 17]: 175 mg/kg-day
LOAEL ([5]; subchronic, duration: 90 days, CD1, hepatic): 175 mg/kg-day

[Al+3].[P-3] [Aluminum phosphide]
NOAEL ([2]; chronic, M/F, body weight and clinical parameters): 0.043 mg/kg-day
NOAEL ([3]; chronic, duration: 2 years, diet, Unspecified: Altered clinical parameters + Whole body: Altered weight): 0.43 mg/kg-day

[O]=[Sb](=[O])[O][Sb](=[O])=[O] [Antimony pentoxide]
LOAEL ([3]; chronic, drinking water, blood: Altered chemistries + Whole body: Increased mortality): 0.46 mg/kg-day

[Ba+2].[Cl-].[Cl-] [Barium chloride]
NOAEL [1]: 5.1 mg/kg-day

N#Cc1cc(Br)c(O)c(Br)c1 [Bromoxynil]
NOEL ([2]; chronic, duration: 2 years, diet, M/F, no effects): 5 mg/kg-day
NOEL ([3]; chronic, duration: 2 years, diet, None Observed): 5 mg/kg-day

Nc1cc(Cl)cc(C(=O)O)c1Cl [Chloramben]
LEL ([4]; chronic, duration: 18 months, oral, diet, M/F, CD1, hepatocyte degeneration): 15 mg/kg-day

NCl [Chloramine]
NOAEL ([2]; chronic, M/F, no effects): 9.5 mg/kg-day
NOAEL ([3]; chronic, duration: 2 years, drinking water, Kidney: Weight changes + Liver: Weight changes + Whole body: Weight changes): 9.5 mg/kg-day

[Cr+3] [Chromium (III)]
LOAEL ([6]; subchronic, duration: 13 weeks, inhalation, nose only, M/F, Fisher 344/Crl BR VAF/Plus, respiratory): 3 mg/m3
NOEL (% CrO3) ([3]; chronic, duration: 840 days, diet, None Observed): 5

[Cr+6] [Chromium (VI) ion]
LOAEL [1]: 13.1 mg/kg-day
NOAEL [1]: 3.28 mg/kg-day
NOAEL ([2]; chronic, duration: 1 years, drinking water, M/F, no effects): 25 mg/L
NOAEL ([3]; chronic, duration: 1 years, drinking water, None Observed): 2.4 mg/kg-day

N#CC#N [Cyanogen]
NOAEL ([3]; chronic, duration: 2 years, diet, Nerve: Myelin degeneration + Thyroid: Effects + Whole body: Decreased weight): 21.6 mg/kg-day

C[C@@H]1C[C@H]2[C@@H]3CCC4=CC(=O)C=C[C@]4(C)[C@@]3(F)[C@@H](O)C[C@]2(C)[C@@]1(O)C(=O)CO [Dexamethasone]
NOEL ([10]; short-term, gavage, Induction of hepatic tyrosine aminotransferase activity): 0.0015 mg/kg-day

CN[C@@H]1[C@H](O[C@H]2[C@H](O[C@H]3[C@H](O)[C@@H](O)[C@H](N=C(N)N)[C@@H](O)[C@@H]3N=C(N)N)O[C@@H](C)[C@]2(O)CO)O[C@@H](CO)[C@H](O)[C@H]1O [Dihydrostreptomycin]
LOEL [10, 18]: 10 mg/kg-day
NOEL [10, 18]: 5 mg/kg-day

CC[n+]1c(-c2ccccc2)c2cc(N=NNc3cccc(C(=N)N)c3)ccc2c2ccc(N)cc21 [Isometamidium]
NOAEL ([10]; subchronic, duration: 13 weeks, gavage, M/F, Crl:CD(SD) BR): 50 mg/kg-day

CCOC(=O)C(C)OC(=O)c1cc(Oc2ccc(C(F)(F)F)cc2Cl)ccc1[N+](=O)[O-] (centres undefined) [Lactofen]
LEL ([4]; chronic, duration: 78 weeks, oral, M/F, hepatocytomegaly in males + Increased absolute and relative liver weight): 1.5 mg/kg-day

O=C(NC(=O)c1c(F)cccc1F)Nc1cc(Cl)c(OC(F)(F)C(F)C(F)(F)F)cc1Cl (centres undefined) [Lufenuron]
NOAEL ([10]; chronic, duration: 2 years, Tonic-clonic seizures, histopathological effects on lungs, liver, non-glandular stomach, intestines and urinary tract.): 1.93 mg/kg-day

O=c1ccc(=O)[nH][nH]1 [Maleic hydrazide]
LEL ([2]; chronic, duration: 2 years, diet, M/F, renal dysfunction): 500 mg/kg-day
LOAEL ([3]; chronic, duration: 28 months, diet, Kidney: Altered function): 500 mg/kg-day

CCc1cccc(C)c1N(C(=O)CCl)C(C)COC (centres undefined) [Metolachlor]
LEL [2, 19]: 150 mg/kg-day
NOEL [2, 19]: 15 mg/kg-day
LEL [2, 20]: 50 mg/kg-day
NOEL [2, 20]: 15 mg/kg-day
LOEL [11, 21]: 800 mg/kg-day and 500 mg/kg-day
NOEL [11, 21]: 400 mg/kg-day and 300 mg/kg-day
NOAEL ([3]; chronic, duration: 2 years, diet, Whole body: Decreased weight gain): 23.4 mg/kg-day

CN(C)c1ccccc1 [N,N-Dimethylaniline]
LOAEL ([12]; short-term, duration: 15 days): 188 mg/kg-day
NOAEL ([12]; short-term, duration: 15 days): 93.8 mg/kg-day
LOAEL ([12]; subchronic, duration: 13 weeks): 62.5 mg/kg-day
NOAEL ([12]; subchronic, duration: 13 weeks): 31.2 mg/kg-day
NOAEL ([13]; short-term, duration: 14 days): 93.8 mg/kg-day
NOAEL ([13]; subchronic, duration: 13 weeks): 31.2 mg/kg-day
NOEL ([9]; subchronic, duration: 13 weeks, gavage, M/F, Fischer 344, Body Weight Changes: decrease + Histopathology: Spleen-Hematopoiesis, extramedullary Spleen-Hemosiderosis Kidney-Pigmentation Liver-…): < 31 mg/kg-day
NOEL ([9]; subchronic, gavage, M, Sprague-Dawley, Clinical Observation: Dark-red discoloration of skin R + Functional Observational Battery: Dark-red discoloration of skin R + Hematology: …): 1 mg/kg-day
LOAEL ([4]; subchronic, oral, gavage, M/F, splenomegaly, increased splenic hemosiderosis and hematopoiesis): 31.2 mg/kg-day

c1ccc2ccccc2c1 [Naphthalene]
LOAEL ([4]; chronic, inhalation, M/F, nasal effects: hyperplasia and metaplasia in respiratory and olfactory epithelium, respectively): 52.4 mg/m3
LOAEL [2, 22]: 200 mg/kg-day
NOAEL [2, 22]: 100 mg/kg-day
LOAEL ([6]; chronic, duration: 105 weeks, inhalation, M/F, Fischer 344, respiratory): 52.4 mg/m3
LOAEL ([6]; reproduction developmental, duration: 9 days, oral, gavage, F, Sprague-Dawley, neurological): 50 mg/kg-day

[Ni] [Nickel]
NOAEL ([6]; chronic, duration: 2 years, inhalation, M/F, Fischer 344, respiratory): 0.03 mg/m3
NOAEL ([6]; subchronic, duration: 13 weeks, inhalation, M/F, Fischer 344, respiratory): 0.06 mg/m3
NOAEL ([3]; chronic, duration: 2 years, diet, Organs, major: Decreased organ weight + Whole body: Decreased body weight): 7.8 mg/kg-day

Brc1cc(Oc2cc(Br)c(Br)c(Br)c2Br)c(Br)c(Br)c1Br [Octabromodiphenyl ether]
LOAEL [2, 23]: 5 mg/kg-day
NOAEL [2, 23]: 2.51 mg/kg-day
NOAEL ([6]; subchronic, duration: 13 weeks, inhalation, nose only, M/F, Crl:CD(SD) BR, endocrine): 1.1 mg/m3
NOAEL ([3]; subchronic, duration: 90 days, gavage, Liver: Histological changes): 2.5 mg/kg-day

CCCC1COC(Cn2cncn2)(c2ccc(Cl)cc2Cl)O1 (centres undefined) [Propiconazole]
LEL [14]: 6.25 mg/kg-day
NOEL [14]: 1.25 mg/kg-day
NOEL ([11]; duration: 7 days, Wistar, Neither + effect on AGD in 2500mg/kg at birth / significant increase in testis wt at PND 50 in 500 and 2500 mg/kg but not at PND 92 or …): 2500 mg/kg-day

CCN(CC)C(=S)[S-].[Na+] [Sodium diethyldithiocarbamate]
LOAEL ([2]; chronic, M/F, Reduced body weight and cataracts in females): 62.5 mg/kg-day
LOAEL [2, 24]: 100 mg/kg-day
NOEL [2, 24]: 30 mg/kg-day
NOEL ([3]; subchronic, duration: 90 days, Eye: Cataracts + Whole body: Decreased weight): 30 mg/kg-day

CCOP(=S)(OCC)OP(=S)(OCC)OCC [Sulfotepp]
LEL [2, 25]: 1 mg/kg-day
NOEL [2, 25]: 0.5 mg/kg-day
NOEL ([3]; subchronic, duration: 3 months, diet, Blood: Decreased cholinesterase activity + Erythrocytes: Decreased cholinesterase activity): 0.5 mg/kg-day

Cc1cccc(O)c1 [m-Cresol]
NOAEL ([9]; short-term, duration: 28 days, diet, M/F, Fischer 344, Body Weight Changes: Mean body weight decrease, Body weight gain decrease + Food Consumption: decrease + Absolute Organ Weight: Brain …): 3000 ppm
NOAEL ([9]; subchronic, duration: 13 weeks, gavage, M/F, Sprague-Dawley, Deaths + Clinical Observation: Lethargy Tremors Hunched posture Rough hair coats + Body Weight Changes: Mean body weight decrease, Body …): 50 mg/kg-day
LOAEL [2, 26]: 150 mg/kg-day
NOAEL [2, 26]: 50 mg/kg-day
NOAEL ([3]; subchronic, duration: 90 days, gavage, Nervous system: Neurotoxicity + Whole body: Decreased weight gain): 50 mg/kg-day
